Reference: patent publication US20240246940A1, “HETEROARYL DERIVATIVE COMPOUND AND USE THEREOF” (VORONOI INC., priority 2021, published 2024)
Read-outs that look alike come from different tables or passages of the source.

Tests used:
[1] = tested on: SK-BR-3 cells (HER2 overexpressing cell line); test: SK-BR-3 cell proliferation inhibitory activity (CellTiter-Glo, 120 hours); type: cell-based
In short: (§1)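 Luminescent viability read-out, growth % vs control → GI50, n=3. Seeding: SK-BR-3/BT-474 5000 cells, 48 h pre-plating; N-87 5000, 24 h; HaCaT 3000, 24 h. Dose ranges: 0.2 nM–10 μM (SK-BR-3, BT-474; 3-fold), […]–5 μM (N-87; 5-fold), 0.8 nM–45 μM (HaCaT; 3-fold).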

[2] = tested on: HaCaT cells (EGFR expressing cell line); test: HaCaT cell proliferation inhibitory activity (CellTiter-Glo, 72 hours); type: cell-based
In short: as §1

Compound	GI50 ([1]; Homo sapiens)	GI50 [1]	GI50 ([2]; Homo sapiens)	GI50 [2]
C=CC(=O)N1CCC(Oc2cc3c(Nc4cc(-c5cccn6ccnc56)ccc4OC)ncnc3cc2OC)CC1 [Example 70, 1-(4-((4-((5-(imidazo[1,2-a]pyridin-8-yl)-2-methoxyphenyl)amino)-7-methoxy-quinazolin-6-yl)oxy)piperidin-1-yl)prop-2-en-1-one]	150 to 1000 nM		> 1000 nM	
C=CC(=O)N1CCC(Oc2cc3c(Nc4cc(-c5ccc6occc6c5)ccc4OC)ncnc3cc2OC)CC1 [Example 71, 1-(4-((4-((5-(benzofuran-5-yl)-2-methoxyphenyl)amino)-7-methoxy-quinazolin-6-yl)oxy)piperidin-1-yl)prop-2-en-1-one]	150 to 1000 nM		> 1000 nM	
C=CC(=O)N1CCC(Oc2cc3c(Nc4cc(-c5coc6ccccc56)ccc4OC)ncnc3cc2OC)CC1 [Example 73, 1-(4-((4-((5-(benzofuran-3-yl)-2-methoxyphenyl)amino)-7-methoxy-quinazolin-6-yl)oxy)piperidin-1-yl)prop-2-en-1-one]	≤ 150 nM		≤ 150 nM	
C=CC(=O)N1CCC(Oc2cc3c(Nc4cc(-c5ccnn5C)ccc4OC)ncnc3cc2OC)CC1 [Example 75, 1-(4-((7-methoxy-4-((2-methoxy-5-(1-methyl-1H-pyrazol-5-yl)phenyl)amino)quinazolin-6-yl)oxy)piperidin-1-yl)prop-2-en-1-one]	150 to 1000 nM		> 1000 nM	
C=CC(=O)N1CCC(Oc2cc3c(Nc4cc(-c5cncs5)ccc4OC)ncnc3cc2OC)CC1 [Example 77, 1-(4-((7-methoxy-4-((2-methoxy-5-(thiazol-5-yl)phenyl)amino)quinazolin-6-yl)oxy)piperidin-1-yl)prop-2-en-1-one]	150 to 1000 nM		150 to 1000 nM	
C=CC(=O)N1CCC(Oc2cc3c(Nc4cc(-c5sccc5C)ccc4OC)ncnc3cc2OC)CC1 [Example 82, 1-(4-((7-methoxy-4-((2-methoxy-5-(3-methylthiophen-2-yl)phenyl)amino)quinazolin-6-yl)oxy)piperidin-1-yl)prop-2-en-1-one]	≤ 150 nM		≤ 150 nM	
C=CC(=O)N1CCC(Oc2cc3c(Nc4cc(-c5cc(C)cs5)ccc4OC)ncnc3cc2OC)CC1 [Example 83, 1-(4-((7-methoxy-4-((2-methoxy-5-(4-methylthiophen-2-yl)phenyl)amino)quinazolin-6-yl)oxy)piperidin-1-yl)prop-2-en-1-one]	150 to 1000 nM		150 to 1000 nM	
C=CC(=O)N1CCC(Oc2cc3c(Nc4cc(-c5ccoc5C)ccc4OC)ncnc3cc2OC)CC1 [Example 84, 1-(4-((7-methoxy-4-((2-methoxy-5-(2-methylfuran-3-yl)phenyl)amino)quinazolin-6-yl)oxy)piperidin-1-yl)prop-2-en-1-one]	≤ 150 nM		≤ 150 nM	
C=CC(=O)N1CCC(Oc2cc3c(Nc4cc(-c5cnoc5)ccc4OC)ncnc3cc2OC)CC1 [Example 85, 1-(4-((4-((5-(isoxazol-4-yl)-2-methoxyphenyl)amino)-7-methoxy-quinazolin-6-yl)oxy)piperidin-1-yl)prop-2-en-1-one]	≤ 150 nM		≤ 150 nM	
C=CC(=O)N1CCC(Oc2cc3c(Nc4cc(-c5cccs5)c(C)cc4OC)ncnc3cc2OC)CC1 [Example 95, 1-(4-((7-methoxy-4-((2-methoxy-4-methyl-5-(thiophen-2-yl))amino)quinazolin-6-yl)oxy)piperidin-1-yl)prop-2-en-1-one]	150 to 1000 nM		≤ 150 nM	
C=CC(=O)N1CCC(Oc2cc3c(Nc4cc(-c5ccco5)c(C)cc4OC)ncnc3cc2OC)CC1 [Example 96, 1-(4-((4-((5-(furan-2-yl)-2-methoxy-4-methylphenyl)amino)-7-methoxy-quinazolin-6-yl)oxy)piperidin-1-yl)prop-2-en-1-one]	150 to 1000 nM		≤ 150 nM	

Further lines, with some results ahead:

GI50 ([1]; Homo sapiens)	GI50 [1]	Compound	GI50 ([2]; Homo sapiens)	GI50 [2]
≤ 150 nM		C=CC(=O)N1CCC(Oc2cc3c(Nc4cc(-c5ccco5)cnc4OC)ncnc3cc2OC)CC1 [Example 104, 1-(4-((4-((5-(furan-2-yl)-2-methoxy-pyridin-3-yl)amino)-7-methoxy-quinazolin-6-yl)oxy)piperidin-1-yl)prop-2-en-1-one]	≤ 150 nM	
≤ 150 nM		C=CC(=O)N1CCC(Oc2cc3c(Nc4cc(-c5ccco5)ncc4OC)ncnc3cc2OC)CC1 [Example 105, 1-(4-((4-((2-(furan-2-yl)-5-methoxypyridin-4-yl)amino)-7-methoxy-quinazolin-6-yl)oxy)piperidin-1-yl)prop-2-en-1-one]	≤ 150 nM	
≤ 150 nM		C=CC(=O)N1CCC(Oc2cc3c(Nc4cc(-c5ccco5)ccc4OC)ncnc3cc2OC)C(F)(F)C1 (stereo not drawn) [Example 111, 1-(3,3-difluoro-4-((4-((5-(furan-2-yl)-2-methoxyphenyl)amino)-7-methoxy-quinazolin-6-yl)oxy)piperidin-1-yl)prop-2-en-1-one]	≤ 150 nM	
	150 to 1000 nM	C=CC(=O)N1CCC(Oc2cc3c(Nc4cc(-c5ccco5)ccc4OC)ncnc3cc2OC)CC1C(F)(F)F (stereo not drawn) [Example 114, 1-(4-((4-((5-(furan-2-yl)-2-methoxyphenyl)amino)-7-methoxy-quinazolin-6-yl)oxy)-2-(trifluoro-methyl)piperidin-1-yl)prop-2-en-1-one]		≤ 150 nM
150 to 1000 nM		C=CC(=O)N1CC2CC1CC2Oc1cc2c(Nc3cc(-c4ccco4)ccc3OC)ncnc2cc1OC (stereo not drawn) [Example 115, 1-(5-((4-((5-(furan-2-yl)-2-methoxyphenyl)amino)-7-methoxy-quinazolin-6-yl)oxy)-2-azabicyclo[2. 2.1]heptan-2-yl)prop-2-en-1-one]	≤ 150 nM	
150 to 1000 nM		C=CC(=O)N1CCC(Oc2cc3c(Nc4cc(-c5ccco5)ccc4OC(F)(F)F)ncnc3cc2OC)CC1 [Example 116, 1-(4-((4-((5-(furan-2-yl)-2-(trifluoro-methoxy)phenyl)amino)-7-methoxy-quinazolin-6-yl)oxy)piperidin-1-yl)prop-2-en-1-one]	≤ 150 nM	
≤ 150 nM		C=CC(=O)N1CCC(Oc2cc3c(Nc4cc(-c5cccs5)ccc4OCC)ncnc3cc2OC)CC1 [Example 117, 1-(4-((4-((2-ethoxy-5-(thiophen-2-yl)phenyl)amino)-7-methoxy-quinazolin-6-yl)oxy)piperidin-1-yl)prop-2-en-1-one]	≤ 150 nM	
≤ 150 nM		C=CC(=O)N1CCC(Oc2cc3c(Nc4cc(-c5ccco5)ccc4OCC)ncnc3cc2OC)CC1 [Example 118, 1-(4-((4-((2-ethoxy-5-(furan-2-yl)phenyl)amino)-7-methoxy-quinazolin-6-yl)oxy)piperidin-1-yl)prop-2-en-1-one]	≤ 150 nM	
150 to 1000 nM		COc1ccc(-c2cccs2)cc1Nc1ncnc2cc(OC)c(OC3CCN(C(=O)/C=C/CN(C)C)CC3)cc12 [Example 119, (E)-4-(dimethylamino) 1-(4-((7-methoxy-4-((2-methoxy-5-(thiophen-2-yl)phenyl)amino)quinazolin-6-yl)oxy)piperidin-1-yl)but-2-en-1-one]	≤ 150 nM	
> 1000 nM		C=C(CN(C)C)C(=O)N1CCC(Oc2cc3c(Nc4cc(-c5ccco5)ccc4OC)ncnc3cc2OC)CC1 [Example 121, 2-((dimethylamino)methyl)-1-(4-((4-((5-(furan-2-yl)-2-methoxyphenyl)amino)-7-methoxy-quinazolin-6-yl)oxy)piperidin-1-yl)prop-2-en-1-one]	≤ 150 nM	
